{"source": "the supplement of paper PMC10307832", "experiment_in_all_cases": "relative viability (nuclei count vs DMSO), 5 days (fraction); higher = more cells survive", "key": {"[1]": {"compound": "CCOC(=O)CCNc1cc(N2CCc3ccccc3CC2)nc(-c2ccccn2)n1 [GSK-J4] + COc1cccc2cc(-c3nc([C@H]4CC[C@H](C(=O)O)CC4)n4ncnc(N)c34)[nH]c12 [OSI-027] (partner 0.5 µM)", "method_in_brief": "(§1)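 Medians of duplicate plates are given as relative viability. That measure is the nuclei count in treated wells divided by the count in vehicle wells. Counts were taken on 4× images of lung cancer cell lines in 1536-well plates, 5 days after pin-tool dosing the day after seeding with one drug alone or a fixed anchor-drug dose plus five library-drug doses (not always all listed) in √10 steps.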"}, "[2]": {"compound": "CCOC(=O)CCNc1cc(N2CCc3ccccc3CC2)nc(-c2ccccn2)n1 [GSK-J4] + CS(=O)(=O)CCNCc1ccc(-c2ccc3ncnc(Nc4ccc(OCc5cccc(F)c5)c(Cl)c4)c3c2)o1 [Lapatinib] (partner 2 µM)", "method_in_brief": "as §1"}, "[3]": {"compound": "CCOC(=O)CCNc1cc(N2CCc3ccccc3CC2)nc(-c2ccccn2)n1 [GSK-J4] + Nc1nc2[nH]cc(CCc3ccc(C(=O)N[C@@H](CCC(=O)O)C(=O)O)cc3)c2c(=O)[nH]1 [Pemetrexed] (partner 0.2 µM)", "method_in_brief": "as §1"}, "[4]": {"compound": "CCOC(=O)CCNc1cc(N2CCc3ccccc3CC2)nc(-c2ccccn2)n1 [GSK-J4] + O=C(CCCCCCC(=O)Nc1ccccc1)NO [Vorinostat] (partner 1 µM)", "method_in_brief": "as §1"}}}
{"cell line": "UMC-11", "values": [{"measurement": "relative viability", "setting": "[1]; first compound 0.5 µM", "value": 0.474}, {"measurement": "relative viability", "setting": "[1]; first compound 5 µM", "value": 0.362}, {"measurement": "relative viability", "setting": "[1]; first compound 15.81 µM", "value": 0.423}, {"measurement": "relative viability", "setting": "[1]; first compound 50 µM", "value": 0.34}, {"measurement": "relative viability", "setting": "[2]; first compound 0.5 µM", "value": 1.07}, {"measurement": "relative viability", "setting": "[2]; first compound 1.581 µM", "value": 0.465}, {"measurement": "relative viability", "setting": "[2]; first compound 5 µM", "value": 0.611}, {"measurement": "relative viability", "setting": "[2]; first compound 15.81 µM", "value": 1.06}, {"measurement": "relative viability", "setting": "[2]; first compound 50 µM", "value": 0.808}, {"measurement": "relative viability", "setting": "[3]; first compound 0.5 µM", "value": 0.759}, {"measurement": "relative viability", "setting": "[3]; first compound 1.581 µM", "value": 0.667}, {"measurement": "relative viability", "setting": "[3]; first compound 5 µM", "value": 0.736}, {"measurement": "relative viability", "setting": "[3]; first compound 15.81 µM", "value": 0.771}, {"measurement": "relative viability", "setting": "[3]; first compound 50 µM", "value": 0.649}, {"measurement": "relative viability", "setting": "[4]; first compound 0.5 µM", "value": 0.418}, {"measurement": "relative viability", "setting": "[4]; first compound 1.581 µM", "value": 0.364}, {"measurement": "relative viability", "setting": "[4]; first compound 5 µM", "value": 0.492}, {"measurement": "relative viability", "setting": "[4]; first compound 15.81 µM", "value": 0.437}, {"measurement": "relative viability", "setting": "[4]; first compound 50 µM", "value": 0.187}]}
